From publication PMC11133798, “Vosoritide treatment for children with hypochondroplasia: a phase 2 trial” (eClinicalMedicine, 2024) come the findings set out here.

The assay concerns children with hypochondroplasia. Briefly: Phase 2 trial secondary outcomes: bone age, sitting height ratio, arm span minus height. Format: in vivo, human. The procedure: Secondary outcomes included the change in body proportions as measured by sitting height to standing height ratio and arm span minus standing height, as well as the change in bone age to chronological age ratio after 12 months of therapy. Sitting height was measured three times at each visit using a sitting height table. The average of the three values was used. Sitting height to standing height ratio and arm span minus standing height were standardized for age and sex using available reference data and SDS were calculated.[11]^,[12] Bone age X-rays were read by a single reviewer who was blinded to participant ID, age and time point. Exploratory endpoints included pharmacokinetic parameters, pharmacodynamic markers including collagen X biomarker (CXM) levels and urine cGMP production, and changes in quality of life as measured by the QoLISSY scale.[13] CXM levels in serum were measured in duplicate via an ELISA assay at the Shriners Hospitals for Children in Portland, Oregon as previously described.[14] The average of the two values was used for analysis. Urine samples were obtained for cGMP measurement at baseline and 60, 120, and 240 min after vosoritide injections at the Day 1, Month 6 and Month 12 visits. cGMP levels were assayed at ICON Laboratories (Farmingdale, NY) and were normalized to urine creatinine levels at each time point.
No formal power calculations were done for this proof of principle study. Sample size was determined based on logistical feasibility. Medication adherence was calculated using the number of returned empty vials divided by the number of days of prescribed therapy. Demographics and clinical characteristics were summarized with mean and standard deviation (SD), median and interquartile (IQR) for numerical variables, frequency and proportion for categorical variables. Primary and secondary clinical outcomes were summarized with mean (SD) for the 6-month observation period and the 12-month treatment period. Paired t-tests were carried out to compare the difference between the treatment and observation periods. The corresponding p-value and 95% confidence interval (CI) were reported. Box and whisker plots were used for both primary endpoints (annualized growth velocity and height SDS) and exploratory endpoints (CXM and cGMP) to visualize the trends for the change from baseline to each of the follow-up visits. Safety data (AEs) were summarized as count and percentage of patients as well as the number of total occurrences per each listed AE for the observation period and the treatment period, respectively. As exploratory analyses, the primary endpoints were stratified based on age, baseline growth velocity and baseline height SDS. The summaries of mean (SD) for each visit, mean differences between treatment and observation periods, and the corresponding p-value and 95% CI were all reported. Parent reported quality of life using the QoLISSY scale was also reported with a similar tabular format. Data were analyzed using SAS for Windows version 9.4 (SAS Institute Inc., Cary, NC). A two-sided test with a significance level of 0.05 was used for all hypothesis tests.

As for “PGQEHPNARKYKGANKKGLSKGCFGLKLDRIGSMSGLGC (disulfide) [vosoritide, recombinant 39-amino-acid C-type natriuretic peptide analog expressed in E. coli, cyclic by an intramolecular disulfide bond]”, the “Bone age, Month 12” value (15 μg/kg/day SC, mean (SD), Day 1 61.42 (30.40), single blinded reader, SD) is on record as 71.58 (32.17) months. In addition, the “Bone age, change during treatment period” value (Day 1 to Month 12, mean (95% CI), p<0.0001) is recorded as 10.17 (7.03, 13.31) months. Moreover, the “Bone age/chronological age, change during treatment period” value (Day 1 to Month 12, mean (95% CI), p=0.67) was 0.01 (−0.03, 0.05). In addition, under “Day 1 to Month 12, mean (95% CI), observation period −0.001 (−0.003, 0.001)”, the “Sitting height ratio unadjusted, change during treatment period” value is recorded as −0.009 (−0.01, −0.006). The “Arm span minus height unadjusted, change during treatment period” value (Day 1 to Month 12, mean (95% CI), observation period −0.66 (−1.72, 0.40)) is recorded as −0.76 (−1.55, 0.04). Further, the “Bone age/chronological age, Month 12” value (mean (SD), Day 1 0.78 (0.14), SD) is given as 0.79 (0.15). In addition, the “Arm span minus height unadjusted, Month 12” value (mean (SD), Day 1 −6.26 (2.83), protocol: measurements in centimeters, SD) is reported as −7.01 (3.21). Besides, the “Sitting height ratio unadjusted, Month 12” value (sitting height/standing height, mean (SD), Day 1 0.63 (0.02), SD) is 0.62 (0.02).
